The results in this text go back to patent publication US7598341B2, “Molecules that selectively home to vasculature of premalignant or malignant lesions of the pancreas and other organs” (Burnham Institue for Medical Research, priority 2003, dated 2009).

One assay has as its target T1, PDGFRβ (Mus musculus, UniProt P05622).
T1 construct: from tissue; host or cells: pancreatic islet tumors of RIP1-Tag2 transgenic mice
Briefly: Co-localization of i.v. injected fluorescein-conjugated peptide with PDGFRβ immunostaining in RIP1-Tag2 tumors. To be noted: tissue sections from RIP1-Tag2 tumors, FIG. 5B. Type of assay: in vivo. The procedure:
For immunohistochemistry, frozen slides were pre-incubated with blocking buffer (1×PNB from NEN Biosciences) for one hour, washed several times in 1×PBS and incubated with the primary antibody of interest overnight at 4° C. The cell-specific antibodies used were rat monoclonal anti-mouse CD31 (1:200; BD Pharmingen), rat monoclonal anti-mouse MECA-32 (1:200; BD Pharmingen), rabbit polyclonal anti-mouse NG2 (1:200; Chemicon), and rat monoclonal anti-mouse PDGFRb (CD140b) (1:200; eBioscience). The corresponding secondary antibodies; Cy-3 donkey anti-rabbit IgG and Rhodamine Red donkey anti-rat IgG (Jackson ImmunoResearch), were used at a 1:200 dilution and incubated for one hour at room temperature. The following species-matched immunoglobulins were used as negative controls; rabbit IgG (Vector Laboratories) and rat IgG (Jackson ImmunoResearch) at a 1:200 dilution. The slides were washed several times in 1×PBS and mounted in Vectashield Mounting Medium with DAPI (Vector Laboratories). Hematoxylin and eosin (H&E) staining was performed for histological grading of adjacent sections by standard methods, and lesions were graded as previously described (Lopez and Hanahan, 2002).
FIG. 5A is a bar graph showing binding of RGR or RSR phage to 293 cells transfected with either PDGFRβ, VEGFR2, or non-transfected cells.

The test system of assay [1] is RIP1-Tag2 angiogenic islets and tumors. Put plainly: In vivo homing of phage (pools and individual phage) in RIP1-Tag2 mice. Further details: species or system mouse. Conditions: phage-displayed peptide, i.v., FIG. 1D, with ex vivo binding patterns. On the procedure:
For in vivo selection of phage that home specifically to premalignant lesions and malignant tumors, the ex vivo pre-selected phage pool was injected intravenously into 12 week old RIP1-Tag2 mice through the tail vein, allowed to circulate for 7 minutes and heart-perfused with PBS to remove unbound intravascular phage. As the vasculature is preferentially available for the phage to bind in this selection, there is an enrichment of phage that bind to the endothelium of the target tissue.
The RIP1-Tag2 lesions and control tissues (brain, kidney, spleen, lung, ‘white’ pancreas lacking hemorrhagic lesions and liver were excised to allow for comparison of homing efficiencies. Cell suspensions were prepared by mechanical disruption of the tissues. Tissues were washed to remove unbound phage, and the bound phage rescued and amplified by adding E. coli. The phage pool was re-injected into mice at a similar disease stage, and the cycle repeated. In each experiment, non-recombinant control phage were used as a control for relative selectivity.
Sets of 96 phage clones were randomly collected from each homing phage population that selectively homed to premalignant angiogenic islets or pancreatic tumor cells. Peptide-encoding DNA inserts from collected phage clones were amplified by PCR, and the PCR products sequenced. Phage representing the most frequently appearing peptide motifs were individually tested for their ability to selectively home to the lesions on which they were selected, relative to other stages in the tumorigenesis pathway and to control organs. Six of the phage selected for further analysis were from the tumor screen (referred to as KAA, RGR, RSR, VGVA, VGVG and KAR), and one (EYQ) was picked from the angiogenic screen.

The subject of assay [2] is squamous cell carcinoma in a K14-HPV16 mouse. Briefly: Homing to HPV tumor. It counts as in vivo. To be noted: FIG. 4A. On the procedure:
(§1) To determine whether phage identified to home to pancreatic tumors also home to other types of tumors, these phage were tested using animals having various types of tumors, including bTC3 subcutaneous tumor and MDA MB-435 subcutaneous tumor. bTC3 transplant tumors arise following subcutaneous inoculation of nude mice with cultured islet tumor-derived (bTC3) cells (Efrat et al., 1988). Since the vasculature of a subcutaneously grown bTC3 tumor derives from skin, we also tested another subcutaneous transplant tumor, arising from inoculation of the MDA-MB-435 human breast carcinoma cell line. Finally, K14-HPV16 mice, another well-studied transgenic mouse model of cancer that develop tumors of the squamous epithelial cells of the skin (Arbeit et al., 1994; Coussens et al., 1996), was used to compare RIP1-Tag2 islet tumors to a tumor with similar multistage pathogenesis arising in a different tissue.
(§2) Tumors were dissected from the ear or chest of K14-HPV16 mice. For the bTC3 allograft models, 10^6 bTC3 tumor cells (Efrat et al., 1988) were inoculated under the skin of the rear flank of nu/nu mice in a BALB/c background and allowed to grow until approximately 5 mm in size, and then used for experimental analysis. MDA-MB-435 xenograft models were generated by inoculating 10^6 tumor cells subcutaneously in the chest of nu/nu Balb/c mice. Tumors were used for the homing/binding experiments at 8-12 weeks after injection of the tumor cells.

Assay [3] has as its system MDA MB-435 subcutaneous tumor. Put plainly: Homing to MDA-MB-435 subcutaneous tumor. To be noted: fluorescein-conjugated peptide i.v., FIG. 4B. It counts as in vivo, mouse. The procedure: as §1, §2

T1 sequence (P05622 32-1098): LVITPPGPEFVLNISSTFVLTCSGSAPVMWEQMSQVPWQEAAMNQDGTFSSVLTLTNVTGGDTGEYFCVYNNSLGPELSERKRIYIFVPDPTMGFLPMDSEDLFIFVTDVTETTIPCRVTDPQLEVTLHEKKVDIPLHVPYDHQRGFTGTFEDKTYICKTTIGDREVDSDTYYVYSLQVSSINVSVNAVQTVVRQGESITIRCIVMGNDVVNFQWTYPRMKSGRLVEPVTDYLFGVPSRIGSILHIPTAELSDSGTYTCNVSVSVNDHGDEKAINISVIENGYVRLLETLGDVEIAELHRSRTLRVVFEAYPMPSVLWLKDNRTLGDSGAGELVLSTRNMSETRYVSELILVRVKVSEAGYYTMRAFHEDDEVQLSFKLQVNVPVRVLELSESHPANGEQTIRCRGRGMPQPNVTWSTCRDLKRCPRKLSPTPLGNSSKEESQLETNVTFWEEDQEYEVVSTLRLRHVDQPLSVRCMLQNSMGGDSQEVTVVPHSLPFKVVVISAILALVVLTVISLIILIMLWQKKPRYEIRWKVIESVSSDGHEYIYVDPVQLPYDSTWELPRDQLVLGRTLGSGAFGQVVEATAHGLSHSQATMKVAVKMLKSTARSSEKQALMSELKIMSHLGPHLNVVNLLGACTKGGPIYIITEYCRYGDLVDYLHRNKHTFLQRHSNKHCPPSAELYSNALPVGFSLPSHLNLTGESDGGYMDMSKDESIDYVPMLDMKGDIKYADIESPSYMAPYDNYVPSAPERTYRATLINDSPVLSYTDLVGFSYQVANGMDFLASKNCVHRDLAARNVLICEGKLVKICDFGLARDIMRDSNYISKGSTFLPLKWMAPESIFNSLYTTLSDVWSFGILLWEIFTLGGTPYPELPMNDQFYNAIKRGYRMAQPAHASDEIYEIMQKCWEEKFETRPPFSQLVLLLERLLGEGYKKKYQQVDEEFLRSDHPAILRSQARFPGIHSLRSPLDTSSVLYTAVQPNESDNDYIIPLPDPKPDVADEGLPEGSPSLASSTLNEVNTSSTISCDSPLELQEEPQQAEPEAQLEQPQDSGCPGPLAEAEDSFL

As for CRGRRST [linear homing peptide], the “co-localization with PDGFRβ” value with PDGFRβ was “almost complete co-localization”; in the assay with PDGFRβ (listed as CRGRRST), “co-localize”. Also, the “homing class of individual phage (angiogenic islets or tumors in vivo)” value in assay [1] is on record as “home to both types of lesion”. For the same substance, in assay [2], the “homing to HPV tumor” value was “did not home appreciably”. The “homing to MDA tumor” value in assay [3] is recorded as “did not home appreciably”.
